Measurements from patent publication US20250179049A1, “SALTS OF HETEROCYCLIC INHIBITORS OF MONOCARBOXYLATE TRANSPORTER 4 FOR THE TREATMENT OF DISEASE” (Vettore, LLC, priority 2022, published 2025).
Like-named read-outs stand apart in the source and are kept apart here.

Assays:
[1] = Rat pharmacokinetics, oral gavage; assay type: in vivo, Sprague-Dawley rats; design: AUClast/D: unit not given here; conditions: for MRT inf: read-out: MRTInf—obs; for Tmax: read-out: Tmax
Experimental: Groups, Dosing, and Collection. […] Three rats per group were perorally administered 20, 60, or 200 mg Compound 1 free acid or 25, 75, or 250 mg in 0.5% methylcellulose in Saline for a final concentration of 2, 6, or 20 mg/mL Compound 1 free acid or 2.5, 7.5, or […]. Plasma was collected at 5 min, 15 min, 30 min, 1 hour, 2 hour, 4 hour, 6 hour, 8 hour, and 24 hour post dose via jugular vein.
Stock and Dose Prep. Stock solutions were prepared by dissolving 2.47 mg of Compound 1 (free acid) in 2.470 mL DMSO with vortexing to obtain 1 mg/mL solution of Compound 1 (free acid), or 2.09 mg of Compound 1 (Tris salt) in […] DMSO with vortexing to obtain 1 mg/mL solution of Compound 1 (Tris salt). Dosing solutions were prepared by vortexing/sonicating the following solids in solvent:
LC MS-MS Analysis. Liquid Chromatography with tandem mass spectrometry was used to determine plasma concentrations of Compound 1 Free Acid and Compound 1 Tris Salt in plasma samples collected at prescribed time points.
Appropriate serial concentrations of working solutions were achieved by diluting stock solution of analyte with 50% acetonitrile in water solution. Five μL of working solutions (10, 20, 50, 100, 500, 1000, 5000, 8000, 10000 ng/mL) were added to 50 μL of the blank male SD Rat plasma to achieve calibration standards of 1˜1000 ng/ml (1, 2, 5, 10, 50, 100, 500, 800, 1000 ng/mL) in a total volume of 55 μL. Five quality control (QC) samples at 2 ng/mL, 5 ng/mL, 10 ng/mL, 50 ng/mL and 800 ng/mL for plasma were prepared independently of those used for the calibration curves. These QC samples were prepared on the day of analysis in the same way as calibration standards. 55 μL standards, 55 μL QC samples and 55 μL unknown samples (50 μL plasma/blood with 5 μL blank solution) were added to 200 μL of methanol containing internal standard (dexamethasone) mixture for precipitating protein respectively, and vortexed for 30 seconds. After centrifugation at 4° C. and 4000 rpm for 15 minutes. The supernatant was diluted with water with a ratio of 1:2. 2 μL of the supernatant was injected into the LC/MS/MS system for quantitative analysis.
Instrumentation included HALO 90A C18 2.7 μm 2.1×50 mm HPLC column, a Prominence degasser DGU-20A5R(C), liquid chromatograph Shimadzu LC-30AD with communications bus module CBM-20A and Auto SIL-20AC HT; and an AB Sciex Triple Quad 5500 LC/MS/MS instrument.

[2] = 28-day repeat-dose toxicity study in rats; assay type: in vivo; conditions: Sprague Dawley, rat; for NOAEL at 28 days: in vivo; for AUC(0-t) / Cmax: plasma; for AUC(0-t): read-out: AUC0-24 at NOAEL; for Cmax: read-out: Cmax at NOAEL
Experimental: Compound 1 was administered to Sprague Dawley rats by oral gavage at doses of 25, 75, and 250 mg/kg/day (females) and 40, 120, and 400 mg/kg/day (males) for 28 days. Compound 1-related mortality occurred in 8 of the 15 toxicity males administered 400 mg/kg/day beginning on Day 8 through 24. […] Target tissues included bone marrow, spleen, thymus, liver, lymph nodes, epididymides, seminal vesicles, prostate, testes, uterus, and ovaries.
(§1) Compound 1 tris salt was evaluated for safety in 7- and 28-day studies in rats and dogs. […] The NOAELs for this rat study were 120 mg/kg/day for males and 75 mg/kg/day for females. […] The NOAEL determined in the 28-day dog GLP study was 150 mg/kg/day. These correspond to human equivalent doses (HEDs) of: • Rat: 75 mg/kg×0.16=12 mg/kg • Dog: 150 mg/kg×0.54=81 mg/kg

in vivo = assay: in vivo; design: species or system beagle dogs; conditions: both sexes, beagle, dog
Experimental: Compound 1 was administered to beagle dogs by oral gavage in a range finding study at doses of 30, 79, 240, or 790 mg/kg. […] Compound 1 was administered at doses of 10, 50, and 150 mg/kg/day in the pivotal repeat dose toxicity studies for 28 days.
as §1

[3] = Sprague-Dawley, plasma, rat PO 20 mg/kg, female, mean
[4] = Sprague-Dawley, plasma, rat PO 20 mg/kg, male, mean
[5] = Sprague-Dawley, plasma, rat PO 60 mg/kg, female, mean
[6] = Sprague-Dawley, plasma, rat PO 60 mg/kg, male, mean
[7] = Sprague-Dawley, plasma, rat PO 200 mg/kg, female, mean
[8] = Sprague-Dawley, plasma, rat PO 200 mg/kg, male, mean

Work on CC(C)(OCc1cc(-c2cccc(OC3CCC3)c2)n(-c2ccccc2N2CCC2)n1)C(=O)O [Compound 1, 2-((1-(2-(azetidin-1-yl)phenyl)-5-(3-cyclobutoxyphenyl)-1H-pyrazol-3-yl)methoxy)-2-methylpropanoic acid] yielded an AUC(0-inf) [1, 3] of 991 µg·h/mL, a half-life [1, 3] of 7 h and an MRT inf [1, 3] of 10 h. For the same molecule, the AUC(0-inf) [1, 4] was 168 µg·h/mL, the half-life [1, 4] was 3.27 h and the MRT inf [1, 4] was 4.54 h. It also gave an AUC(0-inf) [1, 5] of 1770 µg·h/mL, a half-life [1, 5] of 9.1 h and an MRT inf [1, 5] of 13.6 h. The AUC(0-inf) [1, 6] was 447 µg·h/mL, the half-life [1, 6] was 2.92 h and the MRT inf [1, 6] was 5.33 h. It also gave an AUC(0-inf) [1, 7] of 3820 µg·h/mL, a half-life [1, 7] of 10.4 h and an MRT inf [1, 7] of 15.9 h. The AUC(0-inf) [1, 8] was 1110 µg·h/mL, the half-life [1, 8] was 3.14 h and the MRT inf [1, 8] was 6.01 h. For the same molecule, the AUC(0-t) ([1]; female, Sprague-Dawley, rat, plasma, po, 20 mg/kg, rat PO 20 mg/kg, female, mean, read-out: AUClast) was 885 µg·h/mL, the Cmax ([1]; female, Sprague-Dawley, rat, plasma, po, 20 mg/kg, rat PO 20 mg/kg, female, mean, read-out: Cmax) was 78.9 µg/mL and the Tmax ([1]; female, Sprague-Dawley, rat, plasma, po, 20 mg/kg, rat PO 20 mg/kg, female, mean) was 2.67 h. For the same molecule, the AUC(0-t) ([1]; female, Sprague-Dawley, rat, plasma, po, 20 mg/kg, rat, Female, PO/20 mg/kg, Mean ± SD, read-out: AUC0-24) was 885 µg·h/mL, the Cmax ([1]; female, Sprague-Dawley, rat, plasma, po, 20 mg/kg, rat, Female, PO/20 mg/kg, Mean ± SD, read-out: Cmax) was 78.8 µg/mL and the AUC(0-t) ([1]; female, Sprague-Dawley, rat, plasma, po, 60 mg/kg, rat PO 60 mg/kg, female, mean, read-out: AUClast) was 1430 µg·h/mL. For the same molecule, the Cmax ([1]; female, Sprague-Dawley, rat, plasma, po, 60 mg/kg, rat PO 60 mg/kg, female, mean, read-out: Cmax) was 113 µg/mL, the Tmax ([1]; female, Sprague-Dawley, rat, plasma, po, 60 mg/kg, rat PO 60 mg/kg, female, mean) was 4.67 h and the AUC(0-t) ([1]; female, Sprague-Dawley, rat, plasma, po, 60 mg/kg, rat, Female, PO/60 mg/kg, Mean ± SD, read-out: AUC0-24) was 1430 µg·h/mL. The Cmax ([1]; female, Sprague-Dawley, rat, plasma, po, 60 mg/kg, rat, Female, PO/60 mg/kg, Mean ± SD, read-out: Cmax) was 113 µg/mL, the Tmax ([1]; female, Sprague-Dawley, rat, plasma, po, 60 mg/kg, rat, Female, PO/60 mg/kg, Mean ± SD) was 4.7 ± 2.3 h and the AUC(0-t) ([1]; female, Sprague-Dawley, rat, plasma, po, 200 mg/kg, rat PO 200 mg/kg, female, mean, read-out: AUClast) was 2850 µg·h/mL. The Cmax ([1]; female, Sprague-Dawley, rat, plasma, po, 200 mg/kg, rat PO 200 mg/kg, female, mean, read-out: Cmax) was 206 µg/mL, the Tmax ([1]; female, Sprague-Dawley, rat, plasma, po, 200 mg/kg, rat PO 200 mg/kg, female, mean) was 4.67 h and the AUC(0-t) ([1]; female, Sprague-Dawley, rat, plasma, po, 200 mg/kg, rat, Female, PO/200 mg/kg, Mean ± SD, read-out: AUC0-24) was 2850 µg·h/mL. For the same molecule, the Cmax ([1]; female, Sprague-Dawley, rat, plasma, po, 200 mg/kg, rat, Female, PO/200 mg/kg, Mean ± SD, read-out: Cmax) was 206 µg/mL, the Tmax ([1]; female, Sprague-Dawley, rat, plasma, po, 200 mg/kg, rat, Female, PO/200 mg/kg, Mean ± SD) was 4.7 ± 1.1 h and the AUC(0-t) ([1]; male, Sprague-Dawley, rat, plasma, po, 20 mg/kg, rat PO 20 mg/kg, male, mean, read-out: AUClast) was 167 µg·h/mL. It also gave a Cmax ([1]; male, Sprague-Dawley, rat, plasma, po, 20 mg/kg, rat PO 20 mg/kg, male, mean, read-out: Cmax) of 30.6 µg/mL, a Tmax ([1]; male, Sprague-Dawley, rat, plasma, po, 20 mg/kg, rat PO 20 mg/kg, male, mean) of 1 h and an AUC(0-t) ([1]; male, Sprague-Dawley, rat, plasma, po, 20 mg/kg, rat, Male, PO/20 mg/kg, Mean ± SD, read-out: AUC0-24) of 167 µg·h/mL. It also gave a Cmax ([1]; male, Sprague-Dawley, rat, plasma, po, 20 mg/kg, rat, Male, PO/20 mg/kg, Mean ± SD, read-out: Cmax) of 30.6 µg/mL, a Tmax ([1]; male, Sprague-Dawley, rat, plasma, po, 20 mg/kg, rat, Male, PO/20 mg/kg, Mean ± SD) of 1 h and an AUC(0-t) ([1]; male, Sprague-Dawley, rat, plasma, po, 60 mg/kg, rat PO 60 mg/kg, male, mean, read-out: AUClast) of 445 µg·h/mL. For the same molecule, the Cmax ([1]; male, Sprague-Dawley, rat, plasma, po, 60 mg/kg, rat PO 60 mg/kg, male, mean, read-out: Cmax) was 56.5 µg/mL, the Tmax ([1]; male, Sprague-Dawley, rat, plasma, po, 60 mg/kg, rat PO 60 mg/kg, male, mean) was 2.67 h and the AUC(0-t) ([1]; male, Sprague-Dawley, rat, plasma, po, 60 mg/kg, rat, Male, PO/60 mg/kg, Mean ± SD, read-out: AUC0-24) was 445 µg·h/mL. The Cmax ([1]; male, Sprague-Dawley, rat, plasma, po, 60 mg/kg, rat, Male, PO/60 mg/kg, Mean ± SD, read-out: Cmax) was 56.5 µg/mL, the Tmax ([1]; male, Sprague-Dawley, rat, plasma, po, 60 mg/kg, rat, Male, PO/60 mg/kg, Mean ± SD) was 2.7 ± 1.2 h and the AUC(0-t) ([1]; male, Sprague-Dawley, rat, plasma, po, 200 mg/kg, rat PO 200 mg/kg, male, mean, read-out: AUClast) was 1100 µg·h/mL. The Cmax ([1]; male, Sprague-Dawley, rat, plasma, po, 200 mg/kg, rat PO 200 mg/kg, male, mean, read-out: Cmax) was 115 µg/mL, the Tmax ([1]; male, Sprague-Dawley, rat, plasma, po, 200 mg/kg, rat PO 200 mg/kg, male, mean) was 4 h and the AUC(0-t) ([1]; male, Sprague-Dawley, rat, plasma, po, 200 mg/kg, rat, Male, PO/200 mg/kg, Mean ± SD, read-out: AUC0-24) was 1100 µg·h/mL. It also gave a Cmax ([1]; male, Sprague-Dawley, rat, plasma, po, 200 mg/kg, rat, Male, PO/200 mg/kg, Mean ± SD, read-out: Cmax) of 115 µg/mL, a Tmax ([1]; male, Sprague-Dawley, rat, plasma, po, 200 mg/kg, rat, Male, PO/200 mg/kg, Mean ± SD) of 4 ± 2 h and an AUClast/D ([1]; rat PO 20 mg/kg, female, mean) of 44231. The “AUC—% Extrap—obs” value ([1]; rat PO 20 mg/kg, female, mean) was 9.9%, the Cmax ([1]; rat PO 20 mg/kg, female, mean, listed as Free Acid, 20 mg/kg) was 78.833 µg/mL and the “AUC—% Extrap—obs” value ([1]; rat PO 20 mg/kg, male, mean) was 0.61%. The AUClast/D ([1]; rat PO 60 mg/kg, female, mean) was 23759, the “AUC—% Extrap—obs” value ([1]; rat PO 60 mg/kg, female, mean) was 16.7% and the AUClast/D ([1]; rat PO 60 mg/kg, male, mean) was 7419. The “AUC—% Extrap—obs” value ([1]; rat PO 60 mg/kg, male, mean) was 0.477%, the AUClast/D ([1]; rat PO 200 mg/kg, female, mean) was 14265 and the “AUC—% Extrap—obs” value ([1]; rat PO 200 mg/kg, female, mean) was 22.1%. For the same molecule, the AUClast/D ([1]; rat PO 200 mg/kg, male, mean) was 5525, the “AUC—% Extrap—obs” value ([1]; rat PO 200 mg/kg, male, mean) was 0.704% and the Clinical symptoms ([1]; rats, single oral gavage dose) was “No abnormal clinical symptoms were observed”. For the same molecule, the NOAEL at 28 days ([2]; male rats, 28 days oral gavage, read-out: NOAEL) was 120 mg/kg/day, the AUC(0-t) ([2]; po, female rats, 75 mg/kg/day) was 3230 µg·h/mL and the Cmax ([2]; po, female rats, 75 mg/kg/day) was 198 µg/mL. It also gave an AUC(0-t) ([2]; po, male rats, 120 mg/kg/day) of 2780 µg·h/mL, a Cmax ([2]; po, male rats, 120 mg/kg/day) of 180 µg/mL and an NOAEL at 28 days ([2]; female, po) of 75 mg/kg/day. The NOAEL at 28 days (in vivo) was 150 mg/kg/day.
